Reference: publication PMC11795524, “Melanin-Binding-Based Discovery of Topically Instilled Carbonic Anhydrase Inhibitors for Targeted Delivery and Prolonged Action in the Eye” (Molecular Pharmaceutics, 2025)
Several values for one entry are separate records, joined by “and”; a condition that tells them apart may be missing. Equal entries are not always repeated.

Columns and labels:
[1] = In vitro melanin binding by microscale thermophoresis / initial fluorescence (Monolith NT.115 pico)
Excerpt: Melanin binding of the CAI-II compounds was studied with a Monolith NT.115 pico (NanoTemper Technologies GmbH, Munich, Germany) device using the method of […] et al. […] Otherwise, normalized fluorescence signals and the ratio of relative fluorescence after heating (MST mode) were used. The MST software was used in expert mode to allow heating for 30 s. […] As ligand autofluorescence may interfere with the assay, their autofluorescence values were pretested with the detector used in experiment (nanoblue or pico-red). Fluorescence of the ligand should be below 20% of melanin fluorescence. Sample aggregation and adsorption to the capillaries were used also as exclusion criteria.

[2] = Ocular pharmacokinetics in pigmented rats (iris-ciliary body, 3H-A01); assay type: in vivo, rat; settings: for bound fraction: pigmented tissue
Excerpt: Eight albino rats (RccHan/Wist) and 18 pigmented rats (HsdOla/LH) were obtained from Envigo Laboratories B.V. (The Netherlands) and were used in pharmacokinetic experiments. Additional 13 albino and 13 pigmented rats were used in generation of the analytical standards. Young adult (3–4 months; 340–445 g) rats were used.
To conduct the pharmacokinetic study, bromo-containing CAI A15 (molecular structure presented in Table 1) was conveniently converted into [^3H]-A01 through catalytic dehalogenation in tritium gas. A15 (3.05 mg, 8.2 μmol) was dissolved in dimethylformamide (0.3 mL) and exposed to 99 mbar of tritium gas in a tritium manifold system for 1.5 h in the presence of 10% palladium on carbon (0.57 mg). Following filtration, the reaction mixture underwent double lyophilization with 1 mL ethanol to eliminate labile tritium. […] The crude material was purified via high-performance liquid chromatography, employing a Reprosil-Pur C18-HD column (250 × 10 mm, 5 μm), with a mobile phase comprising 40% acetonitrile in 50 mM ammonium hydrogen carbonate. Purified fractions were subsequently combined, subjected to solid-phase extraction, and eluted with ethanol. Radiochemical analysis indicated a purity exceeding 97%, with a molar activity of 0.29 TBq/mmol (7.9 Ci/mmol) and a total activity of 850 MBq (23 mCi). The solution of 1% A01 (10 mg/mL) was prepared similarly as in the IOP study (see Table 1) except that the solution contained also 72 μg/mL of [^3H]–A01 (specific activity 27.21 mCi/mg). The solution was prepared freshly for each experiment.
Seven μL of A01 solution (10 mg/mL including 72 μg/mL of ^3H–A01) was topically applied to both eyes of albino and pigmented rats. Rats were euthanized with carbon dioxide and cervical dislocation. The eyes (n = 4) of albino rats were collected 0.5, 2, 4, and 7 h after treatment. The eyes of pigmented rats were dissected 0.5, 2, 4, 7, 24, 48, 72, 144, and 240 h after eye drop instillation. The eyes were enucleated and dissected immediately after euthanasia. Iris-ciliary body was dissected, snap frozen on dry ice, and stored at −80 °C until analysis. The analyses were conducted within 24 h from tissue dissection.
Bound and unbound radioactivity of tritiated A01 was determined from dissected iris-ciliary body samples. First, the tissues were mechanically homogenized and diluted with 0.9% sodium chloride (weight ratio 35:1). Then, cellular unbound A01 was released from the iris-ciliary body cells by freezing and thawing the solutions three times with dry ice and a water bath (37 °C). Thereafter, the supernatant and pellet were separated by centrifuging the samples for 10 min at 13,000 rpm. The pellets were dissolved by using 60 min incubation in 100 μL of Solvable (PerkinElmer, Waltham, MA, USA). The samples were then bleached with 10 μL of hydrogen peroxide for 30 min. The pellet volume was calculated as the difference between the total and supernatant volumes.
After subtracting the background radioactivity, the measured net counts per minute (cpm) were converted to disintegrations per minute (dpm) taking into account color quenching and device efficiency. Standard curves were generated for each matrix (albino and pigmented supernatants and pellets; Appendix Figure 1). Finally, unbound, bound, and total A01 concentrations (ng/mg) in the iris-ciliary body of the […] were calculated using radioactivity (nCi) per μg of instilled A01 in the eye drops. Signal to noise ratios of measured pellet and supernatant samples in liquid scintillation counting are shown in Appendix Table 3.

[3] = molecular target: T1, human carbonic anhydrase II (Homo sapiens, UniProt P00918); assay: Multiparametric surface plasmon resonance (MP-SPR) interaction kinetics with immobilized hCAII; assay type: binding; settings: MP-SPR, 25 °C, 1:1 model
T1 construct: purchased Sigma
Protocol: All MP-SPR measurements were conducted at 25 °C using carboxymethyl dextran hydrogel-coated (CMD-3DM) sensors (BioNavis) and were based on the protocol described by Rogez-Florent et al.[22]
Human carbonic anhydrase isoenzyme II (Sigma) was immobilized using a standard amine coupling procedure with the Amine Coupling Kit (BioNavis) and phosphate buffered saline (PBS) (20 mM phosphate buffer, 150 mM NaCl, pH 7.4) as the background buffer. Before immobilization, the sensor surface was cleaned with 2 M sodium chloride and 10 mM sodium hydroxide for 6 min at a flow rate of 30 μL/min. Then, a constant flow rate of 10 μL/min was maintained throughout the immobilization steps. The surface was activated for 7 min with 200 mM 1-ethyl-3-(3-(dimethylamino)propyl)-carbodiimide (EDC) and 50 mM N-hydroxysuccinimide, immediately followed by a 5 min injection of 45 μg/mL hCAII solution in 10 mM acetate buffer, pH 5.5. In the reference flow channel, no enzyme was immobilized. Residual activated groups of the dextran matrix were deactivated by a 7 min injection of 1 M ethanolamine HCl, pH 8.3.
For analyzing CAIs, 1% (v/v) DMSO in PBS, pH 7.4, was used as a running buffer. All CAIs were dissolved in 100% DMSO and stored as 50 mM stock solutions. These stock solutions were further diluted with the running buffer and analyzed using a 3-fold (3–1000 nM) dilution series. […] Each analyte was injected at a flow rate of 100 μL/min, with an association time of 2 min and a dissociation time of 10 min. […] Seven concentrations were measured for each CAI per cycle, and a “wash all” step with running buffer was performed at the end of each cycle to minimize the carry over effects. Each CAI were assayed in triplicate across three independent experiments.
The acquired data were processed using MP-SPR Navi Data Viewer software (version 6.7.0.1, BioNavis) employing the weighted centroid method for determining the SPR peak angular position. Signals from the reference flow channel were subtracted from the corresponding signals of the flow channel containing immobilized hCAII. The moment of sample injection was selected as the zero-time point, where both the time and MP-SPR response were set to zero. Processed data were globally fitted to a simple 1:1 interaction model using TraceDrawer software (version 1.9.2, Ridgeview Instruments AB, Sweden) to obtain kinetic parameters.

[4] = iris-ciliary body, single topical eye drop

C/C(=N\Nc1ccc(S(N)(=O)=O)cc1)c1cccnc1 [A01]
Melanin binding classification ([1]; class by Kd): high (high (<65 μM)) | Kd ([1]; melanin nanoparticles 0.5 mg/mL, IF or MST mode, 68% confidence, read-out: Kd ± confidence (melanin binding)): 48 ± 13 µM | concentration at 2 h ([2]; HsdOla/LH (pigmented), rat, topical, 7 µL of 10 mg/mL solution per eye, pigmented iris-ciliary body, 2 h after administration, read-out: bound concentration at 2 h): ~500 ng/g | concentration at 10 days ([2]; HsdOla/LH (pigmented), rat, topical, 7 µL of 10 mg/mL solution per eye, pigmented iris-ciliary body, 10 days, read-out: bound concentration C10 days): 20 ng/g | exposure ratio (AUCpigm/AUCalbino), bound A01 ([2]; iris-ciliary body): 150 and 149.8 | exposure ratio (AUCpigm/AUCalbino), total A01 ([2]; iris-ciliary body): 18 | exposure ratio (AUCpigm/AUCalbino), unbound A01 ([2]; iris-ciliary body): 9.3 | AUC0-last in pigmented tissue, bound A01 [2, 4]: 12.73 (ng/mg) × h | AUC0-last in pigmented tissue, total A01 [2, 4]: 24.72 (ng/mg) × h | AUC0-last in pigmented tissue, unbound A01 [2, 4]: 11.98 (ng/mg) × h | tmax (bound drug) ([2]; pigmented eyes): 24 h | tmax(total drug) ([2]; pigmented eyes): 24 h | Cmax, total concentration ([2]; pigmented iris-ciliary body, at 24 h): 0.36 ng/mg | time over which slow elimination continued ([2]; pigmented iris-ciliary body, total drug): ≥ 10 days | time over which unbound levels were extended ([2]; pigmented iris-ciliary body, below quantitation limit at 6 days): at least 3 days | unbound concentrations ([2]; pigmented rat iris-ciliary body): 10 to 800 nM | bound fraction ([2]; for 72 h): 37–62% | bound fraction ([2]; later than 72 h): about 90% | ka [3]: 0.57 ± 0.33 10^6 M^–1 s^–1 | kd [3]: 1.45 ± 0.15 10^–2 s^–1 | Kd ([3]; read-out: KD): 0.0369 ± 0.0234 µM
